In publication PMC3606385 (PLoS ONE, 2013):
Where “and” joins values, the source holds several entries; their conditions need not be identical. Equal entries are not always repeated. Entries after “also recorded” stand apart in the source; their conditions may differ. Where two headings read alike, the source gives them in different places. Marks after values point to notes of the source that are not given here.

What was measured:
[1] = tested on: diabetic rats; conditions: normal or high fat diet; cited from earlier work
[2] = tested on: Sprague-Dawley rats with high-fat-diet-induced metabolic syndrome; test: High-fat-diet-induced metabolic syndrome treatment in rats; assay type: in vivo, rat; conditions: for Effect on serum LDL / Effect on serum glucose / Effect on serum total cholesterol / Effect on serum triglyceride (Tg): 200 mg/kg
Procedure: By the end of curcumin treatment, rats were euthanized. The body, liver, kidney and testis weights were recorded. Sera were collected after placing the bloods at room temperature for 25 min and centrifuged at 1500 g/min for 20 minutes. Sera were used for measurement of serum glucose, and lipid analysis. Serum glucose, total cholesterol, low density […], apolipoprotein A1 is (APOA1) and apolipoprotein B (APOB) were measured using a Hitachi 7600 biochemical analyzer (Hitachi, Japan) according to standard clinical protocol.

[3] = biological target: T1, Human 11β-HSD2 (Homo sapiens, UniProt P80365); test: 11β-HSD2 assay in human kidney microsomes; assay type: biochemical; conditions: human kidney microsomes
T1 construct: tissue Gentest (Woburn, MA); host or cells: human kidney microsomes
T1 sequence (P80365 1-405): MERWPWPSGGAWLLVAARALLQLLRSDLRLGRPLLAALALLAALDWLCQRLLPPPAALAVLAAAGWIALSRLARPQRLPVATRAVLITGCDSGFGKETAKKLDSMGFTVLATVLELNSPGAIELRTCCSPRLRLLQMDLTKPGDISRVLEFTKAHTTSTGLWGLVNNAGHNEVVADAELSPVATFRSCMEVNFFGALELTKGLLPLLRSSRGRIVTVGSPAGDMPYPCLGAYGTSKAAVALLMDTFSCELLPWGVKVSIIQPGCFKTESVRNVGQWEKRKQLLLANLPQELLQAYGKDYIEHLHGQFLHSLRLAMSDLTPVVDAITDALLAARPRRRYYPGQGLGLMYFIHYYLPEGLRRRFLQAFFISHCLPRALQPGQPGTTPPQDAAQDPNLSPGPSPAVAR
Procedure: The rat and human kidney microsomes were used for 11β-HSD2 sources. 11β-HSD2 activity was performed in the microsome according to a previously described method. In brief, the assay tubes contained 25 nM substrate CORT (for rat) or cortisol (for human), spiked with 30,000 cpm their respective ^3H-11β-hydroxyl steroid, 0.2 mM NAD+ and 0.1 mM DTT in the PBS buffer. 8 (rat) or 20 (human) µg kidney microsomes were added to each tube to initiate the reaction and the reaction mixture was incubated for up to 3 hrs, during which the reaction is within the linear range. The rest procedure was similar to 11β-HSD1 assay. The percentage conversion of CORT to 11DHC or cortisol to cortisone was calculated by dividing the radioactive counts identified as 11keto-steroids by the total counts.
(§1) The IC50 was determined by adding different concentrations of each compound in the 11β-HSD1 or 11β-HSD2 reaction as described. The mode of inhibition was assayed by adding various concentrations of steroid substrates in the presence of an inhibitor as described.

[4] = biological target: T2, Human 11β-HSD1 (Homo sapiens, UniProt P28845); test: 11β-HSD1 assay in intact CHOP cells transfected with human HSD11B1; assay type: cell-based
T2 construct: expressed in transfected cells; host or cells: CHOP cells (transient, FuGENE)
Procedure: An expression plasmid was constructed to express human 11β-HSD1 (HSD11B1) cDNA in pcDNA I expression vector from its original human HSD11B1 vector (pBluescriptSK+).[15]. The Escherichia coli transformants carrying an insert were selected by colony hybridization, and a clone with the insert in the correct orientation relative to the vector T7 promoter was identified by restriction mapping. All transfections were carried out on 80% confluent cultures in 12-well plates. Aliquots of 1 µg HSD11B1 pcDNA I were transfected into mammalian CHOP cells with the FuGENE Transfection Reagent (Roche) according to manufacturer's protocol. Cells were allowed to grow for 24 hours in media containing 10% fetal bovine serum. Then media were removed and cells were harvested for 11β-HSD1 activity assay.
11β-HSD1 reductase activity was performed in intact cells using endogenous cofactor NADPH as described previously. […] 25×10^3 cells were added to each tube to initiate the reaction and the reaction mixture was incubated for up to 2 hrs, during which the reaction is within the linear range. At the end of reaction, the reaction was stopped by adding 2 ml ice-cold ether. The steroids were extracted, and the organic layer was dried under nitrogen. The steroids were separated chromatographically on thin layer plates in chloroform and methanol (90∶10, v/v), and the radioactivity was measured using a scanning radiometer (System AR2000, Bioscan Inc., Washington, DC) as described previously. The percentage conversion of 11DHC to CORT or cortisone to cortisol was calculated by dividing the radioactive counts identified as 11-OH-steroids by the total counts.
as §1

[5] = biological target: T3, Rat 11β-HSD1 (Rattus norvegicus, UniProt P16232); test: 11β-HSD1 assay in adult rat testis microsomes; assay type: biochemical
T3 construct: endogenous in cells; host or cells: primary adult Sprague-Dawley rat Leydig cells
Procedure: Rats were euthanized by CO2, and livers, testes and kidneys were collected. Rat liver, testis and kidney microsomes were prepared as described previously. In brief, rat liver and kidney were homogenized in […] PBS buffer containing 0.25 M sucrose, and nuclei and large cell debris were removed by centrifugation at 1500× g for 10 min. The post-nuclear supernatants were centrifuged twice at 105,000×g, the resultant microsomal pellets were resuspended. Protein contents were measured by Bio-Rad Dye Reagent Concentrate (Cat.#500-0006). Microsomes were used for measurement of 11β-HSD1 and 11β-HSD2 activities.
The rat testis and liver or human liver microsomes were used for 11β-HSD1 assay. 11β-HSD1 activity was performed in the microsome according to a previously described method. […] 2 µg microsomes were added to each tube to initiate the reaction and the reaction mixture was incubated for up to 2 hrs, during which the reaction is within the linear range. The rest procedure was similar to 11β-HSD1 assay in intact cells.
as §1

[6] = HFD rats, 200 mg/kg curcumin, 2 months, vs HFD
[7] = HFD rats, 200 mg/kg curcumin, 2 months, vs HFD, listed as Curcumin
[8] = HFD rats, 200 mg/kg curcumin, 2 months, vs HFD, listed as curcumin
[9] = HFD rats, 200 mg/kg/day gavage, 2 months, Mean ± SEM, n = 10

T2 sequence (P28845 whole entry): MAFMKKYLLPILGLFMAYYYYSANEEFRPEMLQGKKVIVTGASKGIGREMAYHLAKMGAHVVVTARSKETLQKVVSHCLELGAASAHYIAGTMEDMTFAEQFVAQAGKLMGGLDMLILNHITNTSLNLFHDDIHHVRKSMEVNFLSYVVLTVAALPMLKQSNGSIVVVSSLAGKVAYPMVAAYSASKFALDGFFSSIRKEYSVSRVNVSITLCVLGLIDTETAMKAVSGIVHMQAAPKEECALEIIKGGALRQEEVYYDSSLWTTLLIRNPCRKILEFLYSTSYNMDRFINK
T3 sequence (P16232 whole entry): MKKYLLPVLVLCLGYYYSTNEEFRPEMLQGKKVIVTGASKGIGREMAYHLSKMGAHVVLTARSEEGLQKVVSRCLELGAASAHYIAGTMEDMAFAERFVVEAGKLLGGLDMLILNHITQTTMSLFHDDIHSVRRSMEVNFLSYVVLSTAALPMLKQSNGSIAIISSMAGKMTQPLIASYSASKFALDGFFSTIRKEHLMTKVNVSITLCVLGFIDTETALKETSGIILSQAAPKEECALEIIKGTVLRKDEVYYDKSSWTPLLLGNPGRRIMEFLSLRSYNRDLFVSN

COc1cc(/C=C/C(=O)CC(=O)/C=C/c2ccc(O)c(OC)c2)ccc1O [1 (Curcumin), Curcumin]
Effect on serum Tg [1]: remarkably reduced | Effect on serum cholesterol [1]: remarkably reduced | Effect on lipid profiles / HFD-induced dyslipidemia ([2]; 200 mg/kg/day oral, HFD rats): effectively improved; also recorded: effectively prevented | Effect on serum APOA1 [2, 6]: significantly lowered | Effect on serum APOB [2, 6]: significantly lowered | Effect on serum LDL [2, 7]: reduced | Effect on serum glucose [2, 7]: reduced | Effect on serum total cholesterol [2, 7]: reduced | Effect on serum triglyceride (Tg) [2, 7]: reduced | Effect on serum LDL [2, 8]: significantly lowered | Effect on serum glucose [2, 8]: significantly lowered | Effect on serum total cholesterol [2, 8]: significantly lowered | Effect on serum triglyceride (Tg) [2, 8]: significantly lowered | Body weight (g) [2, 9]: 324.8±6.614^b g | Kidney(g) [2, 9]: 1.309±0.0756^a g | Liver(g) [2, 9]: 10.67±0.297^a g | Testis(g) [2, 9]: 2.664±0.1012^a g | Weight Gain(g) [2, 9]: 136.3±6.516^c g | Effect on HFD-induced increase of body weight gain ([2]; two months of treatment): reduced | Effect on HFD-induced increase of liver weight ([2]; two months of treatment): reduced | Effect on kidney weight ([2]; two months of treatment): did not affect | Effect on testis weight ([2]; two months of treatment): did not affect | Adverse effects during treatment ([2]; two-month treatment, 200 mg/kg/day): no adverse effects | IC50 ([3]; read-out: IC50 (nM) Human 11β-HSD2): 14600 nM | IC50 ([3]; read-out: IC50 human 11β-HSD2): 14600 nM | IC50 ([4]; CHOP cells transfected with human HSD11B1, read-out: Human 11β-HSD1 IC50 (nM) in CHOP cells): 2300 nM | IC50 ([4]; IC50 human 11β-HSD1 in intact cells, intact CHOP cells transfected with human HSD11B1): 5780 ± 2220 nM | IC50 ([4]; intact CHOP cells transfected with human HSD11B1, read-out: IC50 human 11β-HSD1 in intact cells): 2290 nM and 2000 to 6000 nM and 2300 nM | IC50 [5]: 4.18 ± 0.24 µM
